These results are taken from US8722730B2, “5-membered heterocyclic compound” (Research Foundation Itsuu Laboratory, priority 2007, dated 2014).

In series [1] the test system is human acute promyelocytic leukemia cell strain HL-60. Briefly: Differentiation induction of HL-60 cells, NBT-reducing ability. Type of series: cell-based. The note with it: 96 h, cultured four days, NBT reduction, read-out: ED50 (the source's name). The procedure:
Cells of human acute promyelocytic leukemia cell strain HL-60 were cultured in a CO2 incubator (5% CO2, 37° C.) using the RPMI medium containing 5% FBS. Differentiation inducing action of the compounds of the present invention on the HL-60 cells were evaluated on the basis of ability to reduce nitroblue tetrazolium (NBT) determined by observing differentiation from promyelocytic cells into granulocytic cells as an index. As positive control of retinoid compounds, retinoic acid and Am80 [4-[(5,6,7,8-tetrahydro-5,5,8,8-tetramethyl-2-naphthalenyl)carbamoyl]benzoic acid] were used. The cells that entered into the logarithmic phase and reached a substantially confluent state were centrifuged at 1000 rpm for 5 minutes, and the culture supernatant was removed. The cell pellet was suspended in fresh RPMI medium containing 5% FBS at a density of 8.0×10^4 cells/ml, then the suspension was added with a test compound dissolved in DMSO at an intended concentration, and the cells were cultured for four days and then used for the experiment. The samples were prepared so as to have the same DMSO concentration.
Cell count of the cells after the culture for a predetermined period was determined by a cell counting method using a blood cell counting chamber. The NBT-reducing ability was obtained as follows. NBT was dissolved in a phosphate buffered saline (PBS(−)) at a concentration of 0.2%, and the solution was added with an equivalent volume of the RPMI medium containing 5% FBS. The mixture was added with phorbol 12-myristate 13-acetate (tPA) at a concentration of 0.2 μM (about 200 ng) to prepare a reagent solution. The collected cells were centrifuged at 1000 rpm for 5 minutes, the supernatant was removed, and the remained cell pellet was added with the reagent solution. The mixture was incubated on a water bath at 37° C. for 20 minutes, and then NBT-reduced stained positive cells were counted by using the counting chamber to calculate a differentiation induction ratio.

For series [2] the following is noted: cited from earlier work.

Where two headings read alike, the source gives them in different places.

By melting point is commonly meant the temperature of the solid-liquid transition. `CC(C)c1cc(C(=O)Nc2ccc(C(=O)O)cn2)oc1C(C)C` [Compound 8, 6-[(4,5-Diisopropylfuran-2-carbonyl)amino]pyridine-3-carboxylic acid]: the melting point lay within 278 to 279 °C. Besides, in series [1], the EC50 worked out at 1.9 nM.

The compound `CC(C)c1cc(C(=O)Nc2ccc(OCC(=O)O)cc2)oc1C(C)C` [Compound 3, 4-[(4,5-Diisopropylfuran-2-carbonyl)amino]phenyloxyacetic acid] came in with a melting point of 83 to 85 °C.

`CC(C)c1cc(C(=O)Nc2ccc(C(=O)O)o2)oc1C(C)C` [Compound 35, 5-[(4,5-Diisopropylfuran-2-carbonyl)amino]-2-furancarboxylic acid] gave a melting point of 169 to 171 °C.

Take `CC(C)c1cc(C(C)C)c(C(=O)Nc2ccc(C(=O)O)cc2)[nH]1` [Compound 13, 4-[(3,5-Diisopropylpyrrole-2-carbonyl)amino]benzoic acid]: the melting point lay within 225 to 226 °C.

The compound `CC(C)c1cc(/C=C/C(=O)N(C)c2cccc(C(=O)O)c2)oc1C(C)C` [Compound 29, 3-[[3-(4,5-Diisopropyl-2-furanyl)acryloyl]methylamino]benzoic acid] came in with a melting point of 187.5 to 189 °C.

Consider `CC(C)c1cc(C(=O)Nc2ccc(C(=O)O)c(O)c2)sc1C(C)C` [Compound 41, 2-Hydroxy-4-[(4,5-diisopropylthiophene-2-carbonyl)amino]benzoic acid], for which the melting point fell in the range of 129 to 130 °C.

In turn, `CC(C)c1cc(C(=O)Nc2ccc(CC(=O)O)cc2)oc1C(C)C` [Compound 4, 4-[(4,5-Diisopropylfuran-2-carbonyl)amino]phenylacetic acid] gave a melting point of 154 to 156 °C.

Compound `C/C(=C\C(=O)Nc1ccc(C(=O)O)cc1)c1cc(C(C)C)c(C(C)C)o1` [Compound 11, 4-[[3-(4,5-Diisopropyl-2-furanyl)crotonoyl]amino]benzoic acid] showed a melting point of 232.5 to 235 °C. Moreover, the EC50 in series [1] was 74.7 nM.

Compound `CC(C)c1cc(C(=O)Nc2ccc(CCC(=O)O)cc2)oc1C(C)C` [Compound 6, 3-[4-[(4,5-Diisopropylfuran-2-carbonyl)amino]phenyl]propionic acid] showed a melting point of 139 to 141 °C. Moreover, the EC50 in series [1] was over 1000 nM.

`CC(C)c1cc(C(=O)Nc2ccc(C(=O)O)c(F)c2)oc1C(C)C` [Compound 22, 2-Fluoro-4-[(4,5-diisopropylfuran-2-carbonyl)amino]benzoic acid] showed a melting point of 151 to 152 °C.

Consider `CC1(C)CCC(C)(C)c2cc(NC(=O)c3ccc(C(=O)O)cc3)ccc21` [Am80, 4-[(5,6,7,8-tetrahydro-5,5,8,8-tetramethyl-2-naphthalenyl)carbamoyl]benzoic acid, reference compound], for which the EC50 in series [1] was 1.6 nM.

On to `CC(C)c1cc(C(=O)Nc2ccc3[nH]c(C(=O)O)cc3c2)oc1C(C)C` [Compound 36, 5-[(4,5-Diisopropylfuran-2-carbonyl)amino]-2-indolecarboxylic acid], for which the melting point lay in the range of 240 to 243 °C.

In the case of `CC(C)c1cc(C(=O)Nc2cc(F)c(C(=O)O)c(F)c2)sc1C(C)C` [Compound 43, 2,6-Difluoro-4-[(4,5-diisopropylthiophene-2-carbonyl)amino]benzoic acid], the melting point is 218 to 219 °C.

As to `CC(C)c1cc(C(=O)Nc2ccc(C(=O)O)c(Cl)c2)sc1C(C)C` [Compound 40, 2-Chloro-4-[(4,5-diisopropylthiophene-2-carbonyl)amino]benzoic acid], the melting point was 222 to 223 °C.

Turning to `COc1cc(NC(=O)c2cc(C(C)C)c(C(C)C)s2)ccc1C(=O)O` [Compound 42, 2-Methoxy-4-[(4,5-diisopropylthiophene-2-carbonyl)amino]benzoic acid], the melting point was in the range of 213 to 214 °C.

As to `CC(C)(C)c1ccc(C(=O)Nc2ccc(C(=O)O)cc2)s1` [4-[(5-t-butylthiophene-2-carbonyl)amino]benzoic acid], the differentiation induction result in series [2] (at 0.22 μM) is “no differentiation induction”. Also, the values for the differentiation induction ratio in series [2] (at 1.1 μM) and in series [2] (at 5.6 μM) were 22% and 23%, respectively.

On to `CC(C)c1[nH]c(C(=O)Nc2ccc(C(=O)O)cc2)c(C(C)C)c1C(C)C` [Compound 14, 4-[(3,4,5-Triisopropylpyrrole-2-carbonyl)amino]benzoic acid], for which the melting point was over 300 °C. In addition, in series [1], the EC50 is over 1000 nM.

In turn, `CC(C)c1cc(C(=O)Nc2ccc(C(=O)O)cn2)sc1C(C)C` [Compound 17, 6-[(4,5-Diisopropylthiophene-2-carbonyl)amino]pyridine-3-carboxylic acid] displayed a melting point of over 300 °C.

For the compound `CC(C)c1cc(/C=C/C(=O)N(C)c2ccc(C(=O)O)cc2)oc1C(C)C` [Compound 27, 4-[[3-(4,5-Diisopropyl-2-furanyl)acryloyl]methylamino]benzoic acid], the melting point lay in the range of 213 to 214 °C.

On to `CC(C)c1cc(C(=O)Nc2cccc(C(=O)O)c2)oc1C(C)C` [Compound 5, 3-[(4,5-Diisopropylfuran-2-carbonyl)amino]benzoic acid], for which the melting point fell in the range of 243.5 to 245 °C.

Compound `CC(C)c1cc(/C=C/C(=O)Nc2ccc(C(=O)O)cc2)oc1C(C)C` [Compound 10, 4-[[3-(4,5-Diisopropyl-2-furanyl)acryloyl]amino]benzoic acid] had a melting point of 131 to 133 °C. The EC50 in series [1] stood at 166 nM.

`CC(C)c1cc(/C=C/C(=O)Nc2cccc(C(=O)O)c2)oc1C(C)C` [Compound 28, 3-[[3-(4,5-Diisopropyl-2-furanyl)acryloyl]amino]benzoic acid] yielded a melting point of 220.5 to 221.5 °C.

Take `CC(C)c1cc(C(=O)Nc2ccc(C(=O)O)cc2)[nH]c1C(C)C` [Compound 12, 4-[(4,5-Diisopropylpyrrole-2-carbonyl)amino]benzoic acid]: the melting point was in the range of 230 to 230.5 °C. Further, the EC50 in series [1] came to 40.4 nM.

For the compound `COc1cc(NC(=O)c2cc(C(C)C)c(C(C)C)o2)ccc1C(=O)O` [Compound 25, 2-Methoxy-4-[(4,5-diisopropylfuran-2-carbonyl)amino]benzoic acid], the melting point was in the range of 136 to 137 °C.

`CC(C)c1cc(C(=O)Nc2ccc(C(=O)O)cc2)sc1C(C)C` [Compound 15, 4-[(4,5-Diisopropylthiophene-2-carbonyl)amino]benzoic acid] returned a melting point of 219 to 221 °C. Besides, the EC50 in series [1] was determined as 1.8 nM.

Compound `CC(C)c1cc(C(=O)Nc2ccc(C(=O)O)cc2)oc1C(C)C` [Compound 1, 4-[(4,5-Diisopropylfuran-2-carbonyl)amino]benzoic acid] registered a melting point of 120 to 121 °C. In addition, the EC50 in series [1] came out at 1.1 nM.

As for `CC(C)c1cc(C(=O)Nc2ccc(C(=O)O)nc2)sc1C(C)C` [Compound 16, 5-[(4,5-Diisopropylthiophene-2-carbonyl)amino]pyridine-2-carboxylic acid], the melting point fell in the range of 216 to 217 °C.

Turning to `CC(C)c1cc(C(=O)Nc2ccc(C(=O)O)c(O)c2)oc1C(C)C` [Compound 24, 2-Hydroxy-4-[(4,5-diisopropylfuran-2-carbonyl)amino]benzoic acid], the melting point fell in the range of 179 to 180 °C.

As for `CC(C)c1cc(C(=O)Nc2ccc(C(=O)O)c(Cl)c2)oc1C(C)C` [Compound 23, 2-Chloro-4-[(4,5-diisopropylfuran-2-carbonyl)amino]benzoic acid], the melting point lay in the range of 152 to 153 °C.

With `CC(C)(C)c1ccc(C(=O)Nc2ccc(C(=O)O)cc2)o1` [4-[(5-t-butylfuran-2-carbonyl)amino]benzoic acid], the differentiation induction ratio in series [2] (at 3.7 μM) is listed as 26%; in series [2] (at 19 μM), 42%; in series [2] (at 74 μM), 60%.

Regarding `CC(C)c1cc(C(=O)Nc2ccc(C(=O)O)nc2)oc1C(C)C` [Compound 7, 5-[(4,5-Diisopropylfuran-2-carbonyl)amino]pyridine-2-carboxylic acid], the melting point fell in the range of 106 to 107.5 °C. The EC50 in series [1] was 13.1 nM.

For `CC(C)c1cc(C(=O)Nc2ccc(C(=O)O)s2)oc1C(C)C` [Compound 9, 5-[(4,5-Diisopropylfuran-2-carbonyl)amino]thiophene-2-carboxylic acid], the melting point was in the range of 227 to 228.5 °C. The EC50 in series [1] was 72.9 nM.

`CC(C)c1cc(C(=O)Nc2ccc(C(=O)O)c(F)c2)sc1C(C)C` [Compound 39, 2-Fluoro-4-[(4,5-diisopropylthiophene-2-carbonyl)amino]benzoic acid] yielded a melting point of 133 to 135 °C.
